{
  "source": "ChEMBL document CHEMBL1133517",
  "about": "“Design, radiosynthesis, and biodistribution of a new potent and selective ligand for in vivo imaging of the adenosine A(2A) receptor system using positron emission tomography” (J Med Chem, 2000)",
  "key": {"Adenosine receptor A1 [1]": {"biological_target": "T1, Adenosine receptor A1 (Rattus norvegicus, UniProt P25099)", "T1 sequence (P25099 whole entry)": "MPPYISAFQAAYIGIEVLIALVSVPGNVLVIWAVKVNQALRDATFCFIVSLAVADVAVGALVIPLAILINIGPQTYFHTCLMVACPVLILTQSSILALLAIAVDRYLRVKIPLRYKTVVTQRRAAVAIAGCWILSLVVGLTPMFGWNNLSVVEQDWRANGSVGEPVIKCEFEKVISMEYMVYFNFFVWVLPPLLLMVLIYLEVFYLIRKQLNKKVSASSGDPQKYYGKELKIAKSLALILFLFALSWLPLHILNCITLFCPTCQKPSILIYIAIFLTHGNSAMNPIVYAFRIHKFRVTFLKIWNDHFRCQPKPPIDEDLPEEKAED", "assay": "Displacement of [3H]DPCPX from adenosine A1 receptor in rat brain membranes", "assay_type": "cell membranes"}, "Adenosine receptor A3 [2]": {"biological_target": "T2, Adenosine receptor A3 (Homo sapiens, UniProt P0DMS8)", "T2 sequence (P0DMS8 whole entry)": "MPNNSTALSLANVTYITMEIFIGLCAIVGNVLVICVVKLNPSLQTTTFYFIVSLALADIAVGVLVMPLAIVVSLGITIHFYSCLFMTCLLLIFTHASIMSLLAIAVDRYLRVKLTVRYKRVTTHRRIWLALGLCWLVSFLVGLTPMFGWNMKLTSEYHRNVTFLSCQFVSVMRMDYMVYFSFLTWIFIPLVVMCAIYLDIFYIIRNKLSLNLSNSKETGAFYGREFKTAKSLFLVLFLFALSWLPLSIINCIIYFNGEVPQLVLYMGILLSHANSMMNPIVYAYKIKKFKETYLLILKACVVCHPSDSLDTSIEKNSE", "assay": "Displacement of [125I]AB-MECA from human adenosine A3 receptor expressed in HEK293 cells", "assay_type": "cell-based"}, "Adenosine receptor A1 [3]": {"biological_target": "T3, Adenosine receptor A1 (Homo sapiens, UniProt P30542)", "T3 sequence (P30542 whole entry)": "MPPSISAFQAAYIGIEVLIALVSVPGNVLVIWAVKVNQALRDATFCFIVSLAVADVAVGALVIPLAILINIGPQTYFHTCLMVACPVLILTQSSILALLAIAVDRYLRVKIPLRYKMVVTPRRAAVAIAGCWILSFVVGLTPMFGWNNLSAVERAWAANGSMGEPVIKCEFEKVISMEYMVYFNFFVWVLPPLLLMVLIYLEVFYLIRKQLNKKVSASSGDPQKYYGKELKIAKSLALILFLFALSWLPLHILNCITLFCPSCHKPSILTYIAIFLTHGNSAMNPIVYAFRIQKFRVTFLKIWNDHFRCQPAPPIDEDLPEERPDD", "assay": "Inhibitory activity against human adenosine A1 receptor expressed in CHO cells by displacement of [3H]DPCPX", "assay_type": "cell-based"}, "Adenosine receptor A2b": {"biological_target": "T4, Adenosine receptor A2b (Homo sapiens, UniProt P29275)", "T4 sequence (P29275 whole entry)": "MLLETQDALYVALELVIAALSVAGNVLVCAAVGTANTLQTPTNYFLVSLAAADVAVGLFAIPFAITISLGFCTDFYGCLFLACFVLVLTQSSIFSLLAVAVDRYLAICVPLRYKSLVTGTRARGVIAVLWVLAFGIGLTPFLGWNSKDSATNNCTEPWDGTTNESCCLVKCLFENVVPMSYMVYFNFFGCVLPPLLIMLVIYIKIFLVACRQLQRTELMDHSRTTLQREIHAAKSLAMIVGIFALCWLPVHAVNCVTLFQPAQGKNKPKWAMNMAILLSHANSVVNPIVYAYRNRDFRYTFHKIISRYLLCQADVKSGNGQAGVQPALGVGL", "assay": "Inhibitory activity against human adenosine A2B receptor expressed in HEK293 cells by displacement of [3H]DPCPX", "assay_type": "cell-based"}, "Adenosine receptor A3 [4]": {"biological_target": "T5, Adenosine receptor A3 (Rattus norvegicus, UniProt P28647)", "T5 sequence (P28647 whole entry)": "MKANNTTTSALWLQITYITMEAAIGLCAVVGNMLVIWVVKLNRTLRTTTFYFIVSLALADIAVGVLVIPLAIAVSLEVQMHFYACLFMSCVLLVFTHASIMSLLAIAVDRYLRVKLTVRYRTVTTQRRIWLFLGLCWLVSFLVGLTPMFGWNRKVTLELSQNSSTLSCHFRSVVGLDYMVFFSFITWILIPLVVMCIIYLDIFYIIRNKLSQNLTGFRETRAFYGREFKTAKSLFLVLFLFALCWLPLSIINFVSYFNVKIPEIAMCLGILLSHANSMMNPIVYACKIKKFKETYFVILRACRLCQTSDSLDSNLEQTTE", "assay": "Inhibitory activity against rat adenosine A3 receptor expressed in HEK293 cells by displacement of [125I]AB-MECA", "assay_type": "cell-based"}},
  "data": [
    {"smiles": "COc1ccc(CCCn2ncc3c2nc(N)n2nc(-c4ccco4)nc32)cc1", "values": [
      {"measurement": "Ki", "setting": "Adenosine receptor A1 [1]", "value": 1810, "unit": "nM"},
      {"measurement": "Ki", "setting": "Adenosine receptor A3 [2]", "value": "> 10", "unit": "µM"},
      {"measurement": "Ki", "setting": "Adenosine receptor A1 [3]", "value": 1110, "unit": "nM"},
      {"measurement": "Ki", "setting": "Adenosine receptor A2b", "value": "> 10", "unit": "µM"},
      {"measurement": "Ki", "setting": "Adenosine receptor A3 [4]", "value": "> 10", "unit": "µM"}
    ]}
  ]
}
